Experimental data as given in the NIST ThermoML archive (doi:10.1016/j.jct.2010.01.004).
Numbers after ± are expanded uncertainties.

Tests used:
[1] = activity coefficient (dimensionless); of the first substance listed, at infinite dilution; xn = mol fraction of the nth substance listed; details: Liquid, Chromatography, x1 = 0
[2] = 308.15 K; 101.33 kPa; Liquid; Vibrating tube method

Row | SMILES | activity coefficient ([1]; 318.15 K) | activity coefficient ([1]; 328.15 K) | activity coefficient ([1]; 338.15 K) | activity coefficient ([1]; 348.15 K) | activity coefficient ([1]; 358.15 K) | activity coefficient ([1]; 368.15 K) | activity coefficient ([1]; 308.15 K) | activity coefficient ([1]; 298.15 K) | mass density [2] [kg/m3]
1 | O [water] + CC(C)C[P+](C)(CC(C)C)CC(C)C.Cc1ccc(S(=O)(=O)[O-])cc1 | 0.585 ± 0.041 | 0.552 ± 0.04 | 0.534 ± 0.039 | 0.524 ± 0.039 | 0.492 ± 0.037 | 0.477 ± 0.037 | – | – | –
2 | CCO [ethanol] + CC(C)C[P+](C)(CC(C)C)CC(C)C.Cc1ccc(S(=O)(=O)[O-])cc1 | 0.259 ± 0.03 | 0.261 ± 0.03 | 0.262 ± 0.03 | 0.266 ± 0.03 | 0.268 ± 0.03 | 0.266 ± 0.03 | 0.263 ± 0.03 | – | –
3 | C=CCCCCCC [oct-1-ene] + CC(C)C[P+](C)(CC(C)C)CC(C)C.Cc1ccc(S(=O)(=O)[O-])cc1 | 12.2 ± 0.8 | 10.8 ± 0.74 | – | – | – | – | 15 ± 1 | 16.6 ± 1.1 | –
4 | CCCCCO [pentan-1-ol] + CC(C)C[P+](C)(CC(C)C)CC(C)C.Cc1ccc(S(=O)(=O)[O-])cc1 | – | – | 0.34 ± 0.032 | 0.346 ± 0.032 | 0.354 ± 0.032 | 0.357 ± 0.033 | – | – | –
5 | c1ccccc1 [benzene] + CC(C)C[P+](C)(CC(C)C)CC(C)C.Cc1ccc(S(=O)(=O)[O-])cc1 | 1.35 ± 0.09 | 1.28 ± 0.08 | 1.25 ± 0.08 | 1.21 ± 0.08 | 1.2 ± 0.08 | 1.18 ± 0.08 | 1.42 ± 0.09 | 1.53 ± 0.1 | –
6 | CCCCO [butan-1-ol] + CC(C)C[P+](C)(CC(C)C)CC(C)C.Cc1ccc(S(=O)(=O)[O-])cc1 | 0.322 ± 0.031 | 0.318 ± 0.031 | 0.319 ± 0.031 | 0.328 ± 0.032 | 0.33 ± 0.032 | 0.323 ± 0.032 | – | – | –
7 | CCCCCC [hexane] + CC(C)C[P+](C)(CC(C)C)CC(C)C.Cc1ccc(S(=O)(=O)[O-])cc1 | 23.3 ± 1.6 | 16.4 ± 1.1 | – | – | – | – | 32.2 ± 2.2 | 48.8 ± 3.3 | –
8 | C#CCCCCC [1-heptyne] + CC(C)C[P+](C)(CC(C)C)CC(C)C.Cc1ccc(S(=O)(=O)[O-])cc1 | 2.54 ± 0.17 | 2.54 ± 0.17 | – | – | – | – | 2.62 ± 0.18 | 2.57 ± 0.17 | –
9 | CCCCC [pentane] + CC(C)C[P+](C)(CC(C)C)CC(C)C.Cc1ccc(S(=O)(=O)[O-])cc1 | 28.5 ± 2 | 18.5 ± 1.3 | – | – | – | – | 41.5 ± 2.8 | 61.4 ± 4.2 | –
10 | Cc1cccc(C)c1 [1,3-dimethylbenzene] + CC(C)C[P+](C)(CC(C)C)CC(C)C.Cc1ccc(S(=O)(=O)[O-])cc1 | 2.44 ± 0.17 | 2.33 ± 0.16 | 2.36 ± 0.16 | 2.28 ± 0.16 | 2.27 ± 0.15 | 2.23 ± 0.15 | 2.48 ± 0.17 | 2.68 ± 0.18 | –
11 | COC(C)(C)C [2-methoxy-2-methylpropane] + CC(C)C[P+](C)(CC(C)C)CC(C)C.Cc1ccc(S(=O)(=O)[O-])cc1 | 8.26 ± 0.56 | 5.68 ± 0.39 | 5 ± 0.34 | 4.57 ± 0.31 | 4.16 ± 0.28 | – | 11 ± 0.8 | 17.1 ± 1.2 | –
12 | c1ccsc1 [thiophene] + CC(C)C[P+](C)(CC(C)C)CC(C)C.Cc1ccc(S(=O)(=O)[O-])cc1 | 0.843 ± 0.054 | 0.818 ± 0.053 | 0.812 ± 0.053 | 0.805 ± 0.052 | 0.804 ± 0.052 | – | 0.848 ± 0.054 | 0.901 ± 0.057 | –
13 | C1CCCCC1 [cyclohexane] + CC(C)C[P+](C)(CC(C)C)CC(C)C.Cc1ccc(S(=O)(=O)[O-])cc1 | 10.5 ± 0.7 | 7.67 ± 0.52 | – | – | – | – | 14.5 ± 1 | 22.5 ± 1.5 | –
14 | C#CCCCC [1-hexyne] + CC(C)C[P+](C)(CC(C)C)CC(C)C.Cc1ccc(S(=O)(=O)[O-])cc1 | 2.32 ± 0.16 | 2.17 ± 0.15 | – | – | – | – | 2.48 ± 0.17 | 2.69 ± 0.18 | –
15 | CCc1ccccc1 [ethylbenzene] + CC(C)C[P+](C)(CC(C)C)CC(C)C.Cc1ccc(S(=O)(=O)[O-])cc1 | 2.33 ± 0.16 | 2.25 ± 0.15 | 2.2 ± 0.15 | 2.17 ± 0.15 | 2.16 ± 0.15 | 2.09 ± 0.14 | 2.37 ± 0.16 | 2.51 ± 0.17 | –
16 | C=CCCCCC [1-heptene] + CC(C)C[P+](C)(CC(C)C)CC(C)C.Cc1ccc(S(=O)(=O)[O-])cc1 | 11.9 ± 0.8 | 9.62 ± 0.66 | – | – | – | – | 14.6 ± 1 | 19.2 ± 1.3 | –
17 | CCCCCCCCCC [decane] + CC(C)C[P+](C)(CC(C)C)CC(C)C.Cc1ccc(S(=O)(=O)[O-])cc1 | 26 ± 1.8 | 23.6 ± 1.6 | – | – | – | – | 29.2 ± 2 | 33.3 ± 2.3 | –

Row | SMILES | activity coefficient ([1]; 318.15 K) | activity coefficient ([1]; 328.15 K) | activity coefficient ([1]; 338.15 K) | activity coefficient ([1]; 348.15 K) | activity coefficient ([1]; 358.15 K) | activity coefficient ([1]; 368.15 K) | activity coefficient ([1]; 308.15 K) | activity coefficient ([1]; 298.15 K) | mass density [2] [kg/m3]
18 | CCCCCCCCC [nonane] + CC(C)C[P+](C)(CC(C)C)CC(C)C.Cc1ccc(S(=O)(=O)[O-])cc1 | 21.6 ± 1.5 | 19.8 ± 1.4 | – | – | – | – | 24.7 ± 1.7 | 26.8 ± 1.8 | –
19 | CCCCCCCC [octane] + CC(C)C[P+](C)(CC(C)C)CC(C)C.Cc1ccc(S(=O)(=O)[O-])cc1 | 20.6 ± 1.4 | 17.2 ± 1.2 | – | – | – | – | 25.8 ± 1.8 | 30.7 ± 2.1 | –
20 | CCCO [propan-1-ol] + CC(C)C[P+](C)(CC(C)C)CC(C)C.Cc1ccc(S(=O)(=O)[O-])cc1 | 0.282 ± 0.03 | 0.28 ± 0.03 | 0.284 ± 0.03 | 0.287 ± 0.031 | 0.299 ± 0.031 | 0.287 ± 0.031 | 0.278 ± 0.03 | – | –
21 | CCCCCCC [heptane] + CC(C)C[P+](C)(CC(C)C)CC(C)C.Cc1ccc(S(=O)(=O)[O-])cc1 | 20.8 ± 1.4 | 16.1 ± 1.1 | – | – | – | – | 26.4 ± 1.8 | 35.2 ± 2.4 | –
22 | C=CCCCC [hex-1-ene] + CC(C)C[P+](C)(CC(C)C)CC(C)C.Cc1ccc(S(=O)(=O)[O-])cc1 | 12.4 ± 0.8 | 9.35 ± 0.64 | – | – | – | – | 16.5 ± 1.1 | 23.5 ± 1.6 | –
23 | C1CCCC1 [cyclopentane] + CC(C)C[P+](C)(CC(C)C)CC(C)C.Cc1ccc(S(=O)(=O)[O-])cc1 | 9.69 ± 0.66 | 6.79 ± 0.46 | – | – | – | – | 13.5 ± 0.9 | 20.6 ± 1.4 | –
24 | CC(C)C[P+](C)(CC(C)C)CC(C)C.Cc1ccc(S(=O)(=O)[O-])cc1 [triisobutylmethylphosphonium p-toluenesulfonate] | – | – | – | – | – | – | – | – | 1061 ± 3
25 | Cc1ccccc1C [1,2-dimethylbenzene] + CC(C)C[P+](C)(CC(C)C)CC(C)C.Cc1ccc(S(=O)(=O)[O-])cc1 | 2.18 ± 0.15 | 2.1 ± 0.14 | 2.06 ± 0.14 | 2.04 ± 0.14 | 2.03 ± 0.14 | 2.01 ± 0.14 | 2.21 ± 0.15 | 2.31 ± 0.16 | –
26 | C=CCCC [1-pentene] + CC(C)C[P+](C)(CC(C)C)CC(C)C.Cc1ccc(S(=O)(=O)[O-])cc1 | 14.5 ± 1 | 9.91 ± 0.68 | – | – | – | – | 20.7 ± 1.4 | 30.5 ± 2.1 | –
27 | CO [methanol] + CC(C)C[P+](C)(CC(C)C)CC(C)C.Cc1ccc(S(=O)(=O)[O-])cc1 | 0.166 ± 0.029 | 0.167 ± 0.029 | 0.171 ± 0.029 | 0.175 ± 0.029 | 0.178 ± 0.029 | 0.179 ± 0.029 | 0.164 ± 0.029 | 0.168 ± 0.029 | –
28 | Cc1ccccc1 [toluene] + CC(C)C[P+](C)(CC(C)C)CC(C)C.Cc1ccc(S(=O)(=O)[O-])cc1 | 1.78 ± 0.12 | 1.69 ± 0.11 | 1.66 ± 0.11 | 1.65 ± 0.11 | 1.64 ± 0.11 | 1.61 ± 0.11 | 1.81 ± 0.12 | 1.94 ± 0.13 | –
29 | C1CCCCCC1 [cycloheptane] + CC(C)C[P+](C)(CC(C)C)CC(C)C.Cc1ccc(S(=O)(=O)[O-])cc1 | 7.64 ± 0.52 | 6.55 ± 0.45 | – | – | – | – | 9.79 ± 0.67 | 12.3 ± 0.8 | –
30 | C#CCCC [1-pentyne] + CC(C)C[P+](C)(CC(C)C)CC(C)C.Cc1ccc(S(=O)(=O)[O-])cc1 | 2.24 ± 0.15 | 1.98 ± 0.13 | – | – | – | – | 2.55 ± 0.17 | 3.01 ± 0.2 | –
31 | C1CCOC1 [tetrahydrofuran] + CC(C)C[P+](C)(CC(C)C)CC(C)C.Cc1ccc(S(=O)(=O)[O-])cc1 | 1.22 ± 0.08 | 1.12 ± 0.07 | 1.09 ± 0.07 | 1.05 ± 0.07 | 1.05 ± 0.07 | – | 1.31 ± 0.09 | 1.41 ± 0.09 | –
32 | Cc1ccc(C)cc1 [1,4-dimethylbenzene] + CC(C)C[P+](C)(CC(C)C)CC(C)C.Cc1ccc(S(=O)(=O)[O-])cc1 | 2.4 ± 0.16 | 2.23 ± 0.15 | 2.26 ± 0.15 | 2.23 ± 0.15 | 2.24 ± 0.15 | 2.21 ± 0.15 | 2.44 ± 0.17 | 2.54 ± 0.17 | –
33 | C#CCCCCCC [1-octyne] + CC(C)C[P+](C)(CC(C)C)CC(C)C.Cc1ccc(S(=O)(=O)[O-])cc1 | 3.06 ± 0.21 | 3.04 ± 0.21 | – | – | – | – | 3.08 ± 0.21 | 3.19 ± 0.22 | –
34 | C1CCCCCCC1 [cyclooctane] + CC(C)C[P+](C)(CC(C)C)CC(C)C.Cc1ccc(S(=O)(=O)[O-])cc1 | 7.48 ± 0.51 | 6.67 ± 0.45 | – | – | – | – | 8.54 ± 0.58 | 10.5 ± 0.7 | –
